Assays:
[1] = test system: Aβ40 in conditioned medium of cells stably expressing Amyloid Precursor Protein (APP); assay: In vitro BACE cell-based assay (HEK cell assay), Aβ40 sandwich ELISA; conditions: Homo sapiens, HEK293; average IC50, cell assay
Outline: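 APP-stably expressing cells (40K/well, grown 24 h in DMEM/10% FBS) were treated 24 h with compounds in 10-point dose response starting at 100 μM or 10 μM, 0.1% DMSO final. Secreted Aβ40 was measured by sandwich ELISA (pAb40 capture, biotinylated 6E10 detection, europium time-resolved fluorescence); IC50 from percent inhibition.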

[2] = target: Beta Secretase enzyme (BACE1) (Homo sapiens, UniProt P56817); assay: In vitro enzymatic BACE FRET assay; assay type: biochemical; conditions: average IC50, enzyme assay; read-out: BACE1 FRET assay IC50
Chain of Beta Secretase enzyme (BACE1) (P56817 46-501): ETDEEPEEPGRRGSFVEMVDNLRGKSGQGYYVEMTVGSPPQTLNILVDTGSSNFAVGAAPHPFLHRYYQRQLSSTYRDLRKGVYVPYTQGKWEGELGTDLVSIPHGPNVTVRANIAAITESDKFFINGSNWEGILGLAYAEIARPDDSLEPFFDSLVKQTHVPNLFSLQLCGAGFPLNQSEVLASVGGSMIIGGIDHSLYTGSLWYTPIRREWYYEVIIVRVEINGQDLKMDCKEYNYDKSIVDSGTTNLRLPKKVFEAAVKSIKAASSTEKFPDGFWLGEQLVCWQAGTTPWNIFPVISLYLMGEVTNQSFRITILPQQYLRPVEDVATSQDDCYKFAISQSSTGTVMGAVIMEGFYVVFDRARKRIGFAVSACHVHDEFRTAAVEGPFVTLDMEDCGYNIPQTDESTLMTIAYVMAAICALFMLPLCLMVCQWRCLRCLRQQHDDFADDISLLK
Outline: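 BACE1 cleavage of a 50 nM fluorophore/quencher peptide FRET substrate ran for one hour in 0.05 M acetate pH 4.2, 10% DMSO, 100 uM genapol. Tris buffer raised pH to neutrality to stop the reaction before fluorescence was read (excitation 488 nm, […]).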

Cathepsin D (Cat D) = target: T1, Cathepsin D (Cat D) (Homo sapiens, UniProt P07339); assay: In vitro enzymatic Cathepsin D (Cat D) FRET assay; assay type: biochemical; conditions: read-out: CatD IC50
T1 construct: Recombinant Cat D was expressed in CHO cells; made in house; host or cells: CHO cells
T1 sequence (P07339 65-412, species assumed): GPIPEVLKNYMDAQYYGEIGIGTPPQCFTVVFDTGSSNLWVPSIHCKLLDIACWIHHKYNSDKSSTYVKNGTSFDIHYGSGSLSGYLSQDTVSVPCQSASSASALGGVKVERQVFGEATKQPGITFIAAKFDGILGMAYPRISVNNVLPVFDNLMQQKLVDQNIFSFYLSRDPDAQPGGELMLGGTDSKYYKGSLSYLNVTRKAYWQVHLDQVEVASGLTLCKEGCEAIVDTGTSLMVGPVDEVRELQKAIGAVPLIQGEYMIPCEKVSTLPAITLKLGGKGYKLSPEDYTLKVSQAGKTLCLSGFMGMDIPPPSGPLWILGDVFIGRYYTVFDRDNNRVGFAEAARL
Outline: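 Recombinant Cat D expressed in CHO cells, used at 9 nM and pre-incubated one hour with serially diluted inhibitor in DMSO. Peptide substrate carries a fluorophore and quencher flanking the cleavage site; reaction stopped with Tris buffer raising pH to neutrality, then fluorescence read.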

Compound | IC50 [1] [nM] | IC50 [2] [nM] | IC50 (Cathepsin D (Cat D)) [nM]
CC1(C)C(N)=N[C@](C)(c2cc(Nc3nccc4cc(OCC5CC5)cnc34)ccc2F)CS1(=O)=O [Example 260, N-(3-((3R)-5-amino-3,6,6-trimethyl-1,1-dioxido-3,6-dihydro-2H-1,4-thiazin-3-yl)-4-fluorophenyl)-3-(cyclopropylmethoxy)-1,7-naphthyridin-8-amine] | 7.5 | 3.8 | 250000
CC1(C)C(N)=N[C@](C)(c2cc(Oc3ccc4ccccc4n3)ccc2F)CS1(=O)=O [Example 261, (5R)-5-(2-fluoro-5-(2-quinolinyloxy)phenyl)-2,2,5-trimethyl-5,6-dihydro-2H-1,4-thiazin-3-amine 1,1-dioxide] | 574 | 300 | 58300
CC1(C)C(N)=N[C@](C)(c2cc(Oc3ncc(F)c(C(F)(F)F)c3F)ccc2F)CS1(=O)=O [Example 262, (5R)-5-(5-((3,5-difluoro-4-(trifluoromethyl)-2-pyridinyl)oxy)-2-fluorophenyl)-2,2,5-trimethyl-5,6-dihydro-2H-1,4-thiazin-3-amine 1,1-dioxide] | > 15600 | 15500 | 68100
Cc1cccnc1Oc1ccc(F)c([C@]2(C)CS(=O)(=O)C(C)(C)C(N)=N2)c1 [Example 263, (5R)-5-(2-fluoro-5-((3-methyl-2-pyridinyl)oxy)phenyl)-2,2,5-trimethyl-5,6-dihydro-2H-1,4-thiazin-3-amine 1,1-dioxide] | 624 | 650 | 555000
Cc1ccnc(Oc2ccc(F)c([C@]3(C)CS(=O)(=O)C(C)(C)C(N)=N3)c2)c1 [Example 264, (5R)-5-(2-fluoro-5-((4-methyl-2-pyridinyl)oxy)phenyl)-2,2,5-trimethyl-5,6-dihydro-2H-1,4-thiazin-3-amine 1,1-dioxide] | 126 | 180 | 878000
Cc1ccc(Oc2ccc(F)c([C@]3(C)CS(=O)(=O)C(C)(C)C(N)=N3)c2)nc1 [Example 265, (5R)-5-(2-fluoro-5-((5-methyl-2-pyridinyl)oxy)phenyl)-2,2,5-trimethyl-5,6-dihydro-2H-1,4-thiazin-3-amine 1,1-dioxide] | 804 | 2260 | 373000
Cc1cccc(Oc2ccc(F)c([C@]3(C)CS(=O)(=O)C(C)(C)C(N)=N3)c2)n1 [Example 266, (5R)-5-(2-fluoro-5-((6-methyl-2-pyridinyl)oxy)phenyl)-2,2,5-trimethyl-5,6-dihydro-2H-1,4-thiazin-3-amine 1,1-dioxide] | 427 | 413 | 407000
CC1(C)C(N)=N[C@](C)(c2cc(Oc3ncc(C(F)(F)F)cc3Cl)ccc2F)CS1(=O)=O [Example 267, (5R)-5-(5-((3-chloro-5-(trifluoromethyl)-2-pyridinyl)oxy)-2-fluorophenyl)-2,2,5-trimethyl-5,6-dihydro-2H-1,4-thiazin-3-amine 1,1-dioxide] | 874 | 603 | 221000
CC1(C)C(N)=N[C@](C)(c2cc(Oc3cc(N)nc(N)n3)ccc2F)CS1(=O)=O [Example 268, 6-(3-((3R)-5-amino-3,6,6-trimethyl-1,1-dioxido-3,6-dihydro-2H-1,4-thiazin-3-yl)-4-fluorophenoxy)-2,4-pyrimidinediamine] | 305 | 318 | 920000
CC1(C)C(N)=N[C@](C)(c2cc(Oc3cccc(C(F)(F)F)n3)ccc2F)CS1(=O)=O [Example 269, (5R)-5-(2-fluoro-5-((6-(trifluoromethyl)-2-pyridinyl)oxy)phenyl)-2,2,5-trimethyl-5,6-dihydro-2H-1,4-thiazin-3-amine 1,1-dioxide] | 574 | 248 | 132000
CC1(C)C(N)=N[C@](C)(c2cc(Oc3cnccn3)ccc2F)CS1(=O)=O [Example 270, (5R)-5-(2-fluoro-5-(2-pyrazinyloxy)phenyl)-2,2,5-trimethyl-5,6-dihydro-2H-1,4-thiazin-3-amine 1,1-dioxide] | 51.1 | 93.5 | 222000
Cc1cc(C#N)cnc1Oc1ccc(F)c([C@]2(C)CS(=O)(=O)C(C)(C)C(N)=N2)c1 [Example 271, 6-(3-((3R)-5-amino-3,6,6-trimethyl-1,1-dioxido-3,6-dihydro-2H-1,4-thiazin-3-yl)-4-fluorophenoxy)-5-methyl-3-pyridinecarbonitrile] | 474 | 549 | 540000
Cc1nc(Oc2ccc(F)c([C@]3(C)CS(=O)(=O)C(C)(C)C(N)=N3)c2)ccc1C#N [Example 272, 6-(3-((3R)-5-amino-3,6,6-trimethyl-1,1-dioxido-3,6-dihydro-2H-1,4-thiazin-3-yl)-4-fluorophenoxy)-2-methyl-3-pyridinecarbonitrile] | 2020 | 2690 | 217000
CC1(C)C(N)=N[C@](C)(c2cc(Oc3ncccc3N)ccc2F)CS1(=O)=O [Example 273, (5R)-5-(5-((3-amino-2-pyridinyl)oxy)-2-fluorophenyl)-2,2,5-trimethyl-5,6-dihydro-2H-1,4-thiazin-3-amine 1,1-dioxide] | 1010 | 1500 | > 400000
CC1(C)C(N)=N[C@](C)(c2cc(Oc3ncccc3F)ccc2F)CS1(=O)=O [Example 274, (5R)-5-(2-fluoro-5-((3-fluoro-2-pyridinyl)oxy)phenyl)-2,2,5-trimethyl-5,6-dihydro-2H-1,4-thiazin-3-amine 1,1-dioxide] | 34.8 | 37.4 | 153000
CC1(C)C(N)=N[C@](C)(c2cc(Oc3ccc(F)cn3)ccc2F)CS1(=O)=O [Example 275, (5R)-5-(2-fluoro-5-((5-fluoro-2-pyridinyl)oxy)phenyl)-2,2,5-trimethyl-5,6-dihydro-2H-1,4-thiazin-3-amine 1,1-dioxide] | 424 | 840 | 364000
Cc1cc(Oc2ccc(F)c([C@]3(C)CS(=O)(=O)C(C)(C)C(N)=N3)c2)ncc1Cl [Example 276, (5R)-5-(5-((5-chloro-4-methyl-2-pyridinyl)oxy)-2-fluorophenyl)-2,2,5-trimethyl-5,6-dihydro-2H-1,4-thiazin-3-amine 1,1-dioxide] | 2630 | 2710 | 421000
CC1(C)C(N)=N[C@](C)(c2cc(Oc3ncc(C(F)(F)F)cc3F)ccc2F)CS1(=O)=O [Example 277, (5R)-5-(2-fluoro-5-((3-fluoro-5-(trifluoromethyl)-2-pyridinyl)oxy)phenyl)-2,2,5-trimethyl-5,6-dihydro-2H-1,4-thiazin-3-amine 1,1-dioxide] | 1150 | 1210 | 331000
CC1(C)C(N)=N[C@](C)(c2cc(Oc3ncccc3C(F)(F)F)ccc2F)CS1(=O)=O [Example 278, (5R)-5-(2-fluoro-5-((3-(trifluoromethyl)-2-pyridinyl)oxy)phenyl)-2,2,5-trimethyl-5,6-dihydro-2H-1,4-thiazin-3-amine 1,1-dioxide] | 359 | 341 | 147000
CC1(C)C(N)=N[C@](C)(c2cc(Oc3ccc(C(F)(F)F)cn3)ccc2F)CS1(=O)=O [Example 279, (5R)-5-(2-fluoro-5-((5-(trifluoromethyl)-2-pyridinyl)oxy)phenyl)-2,2,5-trimethyl-5,6-dihydro-2H-1,4-thiazin-3-amine 1,1-dioxide] | 2090 | 5600 | 188000
CC1(C)C(N)=N[C@](C)(c2cc(Oc3cc(C#N)ccn3)ccc2F)CS1(=O)=O [Example 280, 2-(3-((3R)-5-amino-3,6,6-trimethyl-1,1-dioxido-3,6-dihydro-2H-1,4-thiazin-3-yl)-4-fluorophenoxy)-4-pyridinecarbonitrile] | 52.1 | 39 | 395000
CC1(C)C(N)=N[C@](C)(c2cc(Oc3cc(-c4ccc(Cl)cn4)ccn3)ccc2F)CS1(=O)=O [Example 281, (5R)-5-(5-((5-chloro-2,4′-bipyridin-2′-yl)oxy)-2-fluorophenyl)-2,2,5-trimethyl-5,6-dihydro-2H-1,4-thiazin-3-amine 1,1-dioxide] | 1120 | 807 | 61200
CC1(C)C(N)=N[C@](C)(c2cc(Oc3ccc(C#N)cn3)ccc2F)CS1(=O)=O [Example 282, 6-(3-((3R)-5-amino-3,6,6-trimethyl-1,1-dioxido-3,6-dihydro-2H-1,4-thiazin-3-yl)-4-fluorophenoxy)-3-pyridinecarbonitrile] | 1150 | 1560 | 227000
CC1(C)C(N)=N[C@](C)(c2cc(Oc3cccc(C#N)n3)ccc2F)CS1(=O)=O [Example 283, 6-(3-((3R)-5-amino-3,6,6-trimethyl-1,1-dioxido-3,6-dihydro-2H-1,4-thiazin-3-yl)-4-fluorophenoxy)-2-pyridinecarbonitrile] | 82.8 | 91.9 | 12900
CC1(C)C(N)=N[C@](C)(c2cc(Oc3ccc(F)c(C(F)(F)F)n3)ccc2F)CS1(=O)=O [Example 284, (5R)-5-(2-fluoro-5-((5-fluoro-6-(trifluoromethyl)-2-pyridinyl)oxy)phenyl)-2,2,5-trimethyl-5,6-dihydro-2H-1,4-thiazin-3-amine 1,1-dioxide] | 1640 | 769 | 79100
